Experimental findings from patent publication US20030153611A1, “1,3-Diarylprop-2-en-1-ones, compositions containing them and use thereof” (AVENTIS PHARMA S.A., priority 2001, published 2003) are described below.

Counter-ions that a name gives are not always drawn.

Assay [1] has as its system C51 murine adenocarcinoma. The assay can be described thus: Assessment of the tumor necrosis in vivo. Conditions: intravenous injection, 24 hours after treatment, female BALB/c mice. The source says: Mice are bred by IFFA-CREDO (Domaine des Oncins, 69210 L'Arbresle, France) from a race obtained by Jackson Laboratories, Bar Harbor, Me., USA, or by Charles River France (76410 St Aubin les Elbeuf, France) from a race obtained by Charles River, USA. The mice initially weigh more than 18 g at the start of the test. They have free access to food (UAR reference 113, Villemoisson, 91160 Epinay sur Orge, France) and water.
The tumors used are currently transplanted in our laboratories. All these tumors are at the Frederick Cancer Research Facility (Frederick, Md., USA) in the frozen tumor deposit of the National Cancer Institute (NCl) or at the American Type Culture Collection (ATCC, Rockville, Md., USA).
The tumor transplantation techniques, the chemotherapy and the data analysis are presented in detail (Corbett et al. 1982a; Corbett et al., 1982b).
To summarize, the animals required for an experiment are assembled and implanted bilaterally on day 0 (zero).
The growth of the solid tumors develops freely up to the desired size. The mice are then treated by intravenous injection of a test compound in solution.
The sampling of tumors is usually (but not necessarily) carried out 24 hours after the treatment.
The mice are killed by […]. The implanted tumors, along with the skin covering them and the neighboring tissues, are collected and stored in 10% formaldehyde (v/v) (Carlo Erba, Val de Reuil, France).
The samples are then treated, sectioned, stained with hematoxylin, eosin and saffron yellow, and are then examined […]. The tumor necrosis (necrosis±degeneration) is assessed microscopically using a scale of magnitude from 0 to 5:
The values assigned to the tumor necrosis 24 hours after administration of the test compound correspond solely to a necrosis dependent on the product which may be differentiated with certainty from any existing necrosis arising from the experiment.
The necrosis due to the experiment was assessed on an untreated control.
The tumor model is a C51 murine adenocarcinoma. This colon tumor is a grade III mucous colon […]. It is maintained by serial subcutaneous passages every 18 days in female BALB/c mice. The experiments were carried out on female BALB/c mice.

Another assay deals with HeLa cells. Nature of the assay: Inhibition of proliferation of HeLa cells ([14C]-thymidine incorporation). The format is cell-based. Conditions: Homo sapiens, incubation for 48 hours, read-out: Inhibition of cell proliferation IC50 HeLa. The protocol:
The proliferation of HeLa cells is assessed by measuring the incorporation of [^14C]-thymidine in the following way. The HeLa cells (epithelial tumor cells of human origin) are cultured in a DMEM medium (Gibco) which contains 10% fetal calf serum and antibiotics (1% penicillin, 1% streptomycin). To carry out the proliferation test, the cells are inoculated into 96-well cytostar microplates (Amersham), at a rate of 5 000 cells per well. [^14C]-thymidine (0.1 μCi/well) and the products to be assessed are then added. Variable concentrations of products up to 10 μM are used; the DMSO (solvent used to dissolve the products) should not exceed 0.5% in the medium. After incubation for 48 hours at 37° C., the radioactivity incorporated into the cells is measured by counting the plate in a TRI-LUX counter (Wallac). The IC50 value is defined as the concentration of product which reduces the radioactivity by 50% relative to an untreated control. A product whose IC50 value is less than 1 μM is considered as cytotoxic.

In the case of `COc1cc(C(=O)/C(C)=C/c2ccc3c(ccn3C)c2)cc(OC)c1OC` [Example 5, E-2-Methyl-3-(1-methyl-1-H-indol-5-yl)-1-(3,4,5-trimethoxyphenyl)propenone], the “C51 colon tumor necrosis in vivo (grade)” value in assay [1] (25 mg/kg) is on record as “Grade 5 at 25 (5=large, >75%)”. In addition, the IC50 in the assay with HeLa cells lay within 0.005 to 0.01 µM.
As for `COc1ccc(/C=C(\C)C(=O)c2cc(OC)c(OC)c(OC)c2)cc1NC(=O)[C@@H](N)CO` [Example 13, (S)-2-Amino-3-hydroxypropanoic acid {2-methoxy-5-[2-methyl-3-oxo-3-(3,4,5-trimethoxyphenyl)propenyl]phenyl}amide hydrochloride], the “C51 colon tumor necrosis in vivo (grade)” value in assay [1] (12.5 mg/kg) was “Grade 5 at 12.5 (5=large, >75%)”. Moreover, the IC50 in the assay with HeLa cells was 0.1 µM.
